Results from PMC13266999, “Designing Antibiotics with Inherent Resistance to Efflux as a Strategy to Revive Discovery against Multidrug-Resistant Pathogens” (Journal of Medicinal Chemistry, 2026).
Converted amounts (≈) assume the structure as drawn. Like-named read-outs stand apart in the source and are kept apart here.

Assays:
[1] = Murine thigh infection model; settings: oral 50 mg/kg at 2, 8, and 14 h postinfection; at 26 h
[2] = system: Acinetobacter baumannii; experiment: MIC (microbroth dilution); format: cell-based; settings: Acinetobacter baumannii
Procedure, shortened: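 Broth microdilution MICs were run in tryptic soy broth, or for Streptococcus spp. in cation-adjusted Mueller Hinton broth with 2.5% lysed horse blood, using overnight stationary-phase cultures back-diluted. MIC was the lowest concentration with no visible growth, with OD600 also read. Some MICs included PMBN at 30 μg/mL final.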

[3] = system: S. aureus; experiment: MIC (microbroth dilution); format: cell-based, Staphylococcus aureus
Procedure, shortened: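 Broth microdilution MICs, defined as lowest compound level without visible growth (OD600 read), on bacteria grown overnight to stationary phase then diluted. Twofold compound dilutions; some wells also received PMBN, final 30 μg/mL, to permeabilize the outer membrane.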

C[C@H]1COc2c(N3CCN(C)CC3)c(F)cc3c(=O)c(C(=O)O)cn1c23 [Levofloxacin, (S)-9-Fluoro-3-methyl-10-(4-methylpiperazin-1-yl)-7-oxo-2,3-dihydro-7H-[1,4]oxazino[2,3,4-ij]quinoline-6-carboxylic acid, reference compound]
bacterial counts in thigh [1]: 3.28 log10 CFU/g
MIC ([2]; A118): ≤ 0.06 µg/mL
MIC ([2]; ATCC17978, ATCC 17978, read-out: MIC): 0.125 µg/mL (≈ 0.346 µM)
MIC ([2]; BAA1709, BAA-1709, read-out: MIC): 0.125 µg/mL (≈ 0.346 µM)
MIC ([2]; BAA1710, BAA-1710 (AYE), read-out: MIC): 4 µg/mL (≈ 11.1 µM)
MIC ([2]; BAA2093, BAA-2093, read-out: MIC): 0.06 µg/mL (≈ 0.166 µM)
MIC ([2]; NCTC10303, NCTC 10303, read-out: MIC): 0.125 µg/mL (≈ 0.346 µM)
MIC ([2]; NCTC12156, NCTC 12156, read-out: MIC): 1 µg/mL (≈ 2.77 µM)
MIC ([2]; NCTC13302, NCTC 13302, oxa24, read-out: MIC): 4 µg/mL (≈ 11.1 µM)
MIC ([2]; NCTC13424, NCTC 13424, oxa23, read-out: MIC): 64 µg/mL (≈ 177 µM)
MIC ([2]; UKA1, oxa23, read-out: MIC): 2 µg/mL (≈ 5.53 µM)
MIC ([2]; UKA2, Low resistance, read-out: MIC): 4 µg/mL (≈ 11.1 µM)
MIC ([2]; UKA9, read-out: MIC): 0.125 µg/mL (≈ 0.346 µM)
MIC ([2]; UKA12, oxa23, read-out: MIC): 8 µg/mL (≈ 22.1 µM)
MIC ([2]; UKA13, oxa23, read-out: MIC): 16 µg/mL (≈ 44.3 µM)
MIC ([2]; UKA15, oxa23, read-out: MIC): 4 µg/mL (≈ 11.1 µM)
MIC ([2]; UKA19, read-out: MIC): 1 µg/mL (≈ 2.77 µM)
MIC ([2]; W1, read-out: MIC): 8 µg/mL (≈ 22.1 µM)
MIC50 ([2]; panel of 25 A. baumannii strains): 4 µg/mL (≈ 11.1 µM)
MIC ([3]; ATCC 9144): 0.25 µg/mL (≈ 0.692 µM)
MIC ([3]; SA-1199): 0.25 µg/mL (≈ 0.692 µM)
MIC ([3]; SA-1199B (NorA-overexpressing)): 2 µg/mL (≈ 5.53 µM)
MIC ([3]; Staphylococcus aureus, 1199, + 4% albumin, read-out: MIC): 0.25 µg/mL
MIC ([3]; Staphylococcus aureus, 1199b, + 4% albumin, read-out: MIC): 2 µg/mL
MIC ([3]; Staphylococcus aureus, ATCC9144, ATCC 9144, + 4% albumin, read-out: MIC): 0.25 µg/mL
MIC ([3]; Staphylococcus aureus, ATCC9144, ATCC 9144, read-out: MIC): 0.125 µg/mL (≈ 0.346 µM)
MIC ([3]; Staphylococcus aureus, NCTC13277, NCTC 13277, + 4% albumin, read-out: MIC): 16 µg/mL
MIC ([3]; Staphylococcus aureus, NCTC13277, NCTC 13277, read-out: MIC): 16 µg/mL (≈ 44.3 µM)
MIC ([3]; Staphylococcus aureus, NCTC13616, NCTC 13616, + 4% albumin, read-out: MIC): 16 µg/mL
MIC ([3]; Staphylococcus aureus, NCTC13616, NCTC 13616, read-out: MIC): 16 µg/mL (≈ 44.3 µM)
MIC ([3]; Staphylococcus aureus, SA-1199, read-out: MIC): 0.125 µg/mL (≈ 0.346 µM)
MIC ([3]; Staphylococcus aureus, SA-1199B (NorA-overexpressing)): 1 µg/mL (≈ 2.77 µM)
